Like-named read-outs stand apart in the source and are kept apart here.
Columns and labels:
[1] = Dissolution of the lyophilized complex in water; format: physicochemical; settings: 25 °C
Procedure: To investigate the dissolution, an amount (5 mg) of the lyophilized SuccFerr:RAMEßCD complex was suspended in water. The suspension was incubated at 25 °C in a shaking-bath (200 strokes/min, Heito, France). One-milliliter aliquots were taken at various time intervals up to 24 h and centrifuged× 7200g, 5 min, (Denver Instruments, Bohemia, NY, USA). Each supernatant was analyzed by HPLC to assess the drug contents. The results are presented as mean ± SD of triplicate experiments. A dialysis was also realized under magnetic stirring with a 14,000 Da cut-off bag, containing 2 mL of an aqueous solution of 5 mg of SuccFerr:RAMEßCD and 498 mL of distilled water. Aliquots were taken and analyzed as previously described.

[2] = test system: fifteen molecularly diverse glioblastoma patient-derived cell lines (PDCLs); design: method as in PMID 34638742; settings: cited from earlier work

dissolution in distilled water [1]: cannot be dissolved and was undetectable
SMILES: O=C1CCC(=O)N1CCCC(=C(c1ccc(O)cc1)c1ccc(O)cc1)[c-]1cccc1.[Fe+2].c1cc[cH-]c1 [SuccFerr, N-[4-ferrocenyl,5-5-bis (4-hydroxyphenyl)-pent-4-enyl]-succinimide]
IC50 ratio (highest/lowest) [2]: ≈ 3000
IC50 ([2]; read-out: highest IC50 across the PDCLs): ~30 µM
IC50 ([2]; read-out: lowest IC50 across the PDCLs): 0.01 µM

From publication PMC9316017, “Succinimido–Ferrocidiphenol Complexed with Cyclodextrins Inhibits Glioblastoma Tumor Growth In Vitro and In Vivo without Noticeable Adverse Toxicity” (Molecules, 2022)
